# Article PMC7269146, “Jingzhaotoxin-X, a gating modifier of Kv4.2 and Kv4.3 potassium channels purified from the venom of the Chinese tarantula Chilobrachys jingzhao” (The Journal of Venomous Animals and Toxins Including …, 2020)
# Where a SMILES comes first, the peptide text is derived from it. Bridges are numbered along the chain shown (N, C = ends).
# Assays:
# Ito potassium channels = assay: voltage-clamp, Ito potassium currents in rat DRG neurons; format: cell-based
# Method: An EPC-10 patch-clamp amplifier (HEKA, Germany) was employed to record the potassium currents at the configuration of whole-cell patch-clamp under an ambient temperature of 22-25°C. The resistance was 2.0-3.0 MΩ when the recording pipette contained a full volume of internal solution (supplemented with 140 mM KCl, 10 mM HEPES, 2.5 mM MgCl2, 5 mM ATP and 11 mM EGTA). KOH was utilized to adjust the pH to 7.2, while sucrose was employed to adjust the osmolarity to 310 mOsm/L. The culture medium was replaced with an external solution containing 150 mM NaCl, 2.5 mM CaCl2, 10 mM HEPES, 2 mM MgCl2, 5 mM KCl, and 10 mM D-glucose. Similarly, sucrose and NaOH were applied to adjust the osmolarity to 330 mOsm/L and pH to 7.4. […] The series resistance was maintained at about 5 MΩ, with 65-70% compensation. Finally, the leakage currents and linear capacitance were subtracted digitally according to the P/4 protocol. […]
# Firstly, the effects of JZTX-X on the isoforms of potassium channels (including Kv1.1-1.3, Kv2.1, as well as Kv4.2-4.3) contained within the X. laevis oocytes were investigated through the microelectrode voltage-clamp approach. […] We also determined the effects of JZTX-X on Ito potassium channels in rat DRG neurons; those current amplitudes were inhibited by 54.4±6.8% when 500 nM JZTX-X was applied (Fig. 3K, n = 5).
# [1] = rotarod performance test in mice; format: in vivo, mouse (male C57BL/6); details: 40 nmol/kg, n = 8; for time on accelerating rotarod: 1 h following treatment, cutoff 300 s
# Method: In the present study, male C57BL/6 mice weighing 20-25 g were utilized. This study was performed following the Guide for the Care and Use of Laboratory Animals released by the United States National Institutes of Health (US NIH). Our study protocol was approved by the Animal Experiments Ethics Committee at Central Southern University (No. 2018-2-6). Each operation was performed under isoflurane-induced anesthesia to reduce pain and minimize animal suffering. Lumbar puncture was also conducted for intrathecal injection, as described previously. Next, the effect of JZTX-X on nociception was evaluated by assessing the behaviors during the mechanical hyperalgesia process. The JZTX-X-induced mechanical hyperalgesia was investigated by two experiments via various administration routes, including intrathecal and intraplantar injections. Then, animals were challenged via intrathecal (10 µL) or intraplantar (20 µL) injection of JZTX-X (40 nmol/kg). The control group was given a physiological solution, which contained 0.9% NaCl, […].
# A rotarod accelerator treadmill (Med Associates Inc., St. Albans, VT) was utilized for rotarod performance tests, so as to determine […] motor function as previously described. Motor learning was also carried out by rotarod tests for evaluating the mice’s capacity to stay on the accelerating rotating drum. In JZTX-X- and saline- groups, all animals were acclimated for 30 min within the testing room, and placed for 300 s onto the rotarod that accelerated from 4 to 40 rpm. In addition, the latency time for animals falling from the rod was calculated before and after toxin injection, from the beginning of acceleration to falling onto the drum, and the maximum cutoff time was 300 s.
compound,measurement,setting,value
"CC(C)C[C@@H]1NC(=O)[C@H](CCCCN)NC(=O)[C@H](Cc2ccc(O)cc2)NC(=O)[C@@H]2CSSC[C@@H]3NC(=O)[C@H](Cc4ccc(O)cc4)NC(=O)[C@H](Cc4ccccc4)NC(=O)CNC(=O)[C@H](C)NC(=O)[C@H](CSSC[C@H](NC(=O)[C@@H](N)CC(C)C)C(=O)N[C@@H](CO)C(=O)N[C@@H](CCCNC(=N)N)C(=O)N[C@@H](CCC(=O)O)C(=O)NCC(=O)N[C@@H](CCC(=O)O)C(=O)N[C@@H](Cc4ccccc4)C(=O)N2)NC(=O)[C@H](CSSC[C@@H](C(=O)N[C@@H](Cc2ccc(O)cc2)C(=O)N[C@@H](CCCNC(=N)N)C(=O)N[C@@H](CC(N)=O)C(=O)O)NC(=O)[C@H](Cc2c[nH]cn2)NC(=O)[C@H](CC(C)C)NC(=O)[C@H](C(C)C)NC(=O)[C@H](Cc2ccccc2)NC(=O)[C@H](C)NC(=O)[C@H](CCCCN)NC3=O)NC(=O)[C@H](CCCCN)NC(=O)[C@H](CCCNC(=N)N)NC1=O [JZTX-X, Jingzhaotoxin-X] (H-LCSREGEFCYKLRKCCAGFYCKAFVLHCYRN-OH; disulfide 2-16, 9-21, 15-28; N-terminus assumed)",inhibition of Ito current,"Ito potassium channels; 500 nM, n = 5",54.4±6.8%
same,IC50,"Ito potassium channels; Hill equation fit, n = 6",386 nM
same,effect on motor coordination,[1]; intrathecal and intraplantar,made no difference to the motor coordination in mice
same,time on accelerating rotarod,"[1]; intraplantar, vehicle 118.8 ± 9.8 s",113.4 ± 8.3 s
same,time on accelerating rotarod,"[1]; intrathecal, vehicle 117.9 ± 7.6 s",117.5 ± 7.8 s
